The numbers were not newly measured in US20050064563A1, “Nucleic acids for aminocoumarin biosynthesis” (priority 2001, published 2005), which cites them from elsewhere.

The target in the series is intact gyrase (bacterial DNA gyrase) (Escherichia coli, UniProt P0AES6). Particulars: intact gyrase heterotetramer; Peng et al. (1993) J. Biol. Chem. 268: 24481-24490; read-out: concentration achieving 50% inhibition of gyrase.

Regarding `CO[C@H]1[C@H](OC(=O)c2ccc(C)[nH]2)[C@H](O)[C@@H](Oc2ccc3c(O)c(NC(=O)c4c[nH]c(C(=O)Nc5c(O)c6ccc(O[C@H]7OC(C)(C)[C@@H](OC)[C@H](OC(=O)c8ccc(C)[nH]8)[C@@H]7O)c(C)c6oc5=O)c4C)c(=O)oc3c2C)OC1(C)C` [coumermycin A1], the IC50 was 4 nM.
